From patent US11773078B2, “Furin inhibitors” (Glaxosmithkline Intellectual Property Development Limited, priority 2018, dated 2023) come the findings set out here.

Counter-ions that a name gives are not always drawn.

The target in assay [1] is T1, Furin (108-574-Tev-Flag-His) enzyme (Homo sapiens, UniProt P09958).
T1 construct: Furin (108-574-Tev-Flag-His) enzyme was expressed and purified from CHO cells; TEV cleavage site (C); FLAG (C); His (C); made in house; host or cells: CHO cells
Briefly: Furin enzyme assay. Type of assay: biochemical. In a few lines: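 Compounds ran as 11-point threefold dilutions (0.00017–10 μM final) against 40 pM furin, purified from CHO cells, for 2 h at room temperature. Buffer: 100 mM HEPES pH7.5 with 1 mM CaCl2 and 0.005% Triton X-100. Envision readout. Four-parameter curve gives pXC50.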

Assay [2] concerns the target T2, furin (endogenous protease) in U20S cells (Homo sapiens, UniProt P09958).
T2 construct: the endogenous protease cleaves GFP; endogenous in cells; host or cells: U2OS cells transduced with a BacMam reporter
Briefly: Furin cell-based assay (image-based, Golgi-targeted GFP with BMP10 furin/PCSK cleavage site).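 Note: Read-out is mean GFP fluorescence of Golgi puncta per cell by high-content imaging, retained when furin inhibited, over an eleven-point 0.00017–10 µM series, four-parameter fit.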 Particulars: 24-hour incubation, read-out: furin golgi cell pXC50 (converted).

T2 sequence (P09958 108-794): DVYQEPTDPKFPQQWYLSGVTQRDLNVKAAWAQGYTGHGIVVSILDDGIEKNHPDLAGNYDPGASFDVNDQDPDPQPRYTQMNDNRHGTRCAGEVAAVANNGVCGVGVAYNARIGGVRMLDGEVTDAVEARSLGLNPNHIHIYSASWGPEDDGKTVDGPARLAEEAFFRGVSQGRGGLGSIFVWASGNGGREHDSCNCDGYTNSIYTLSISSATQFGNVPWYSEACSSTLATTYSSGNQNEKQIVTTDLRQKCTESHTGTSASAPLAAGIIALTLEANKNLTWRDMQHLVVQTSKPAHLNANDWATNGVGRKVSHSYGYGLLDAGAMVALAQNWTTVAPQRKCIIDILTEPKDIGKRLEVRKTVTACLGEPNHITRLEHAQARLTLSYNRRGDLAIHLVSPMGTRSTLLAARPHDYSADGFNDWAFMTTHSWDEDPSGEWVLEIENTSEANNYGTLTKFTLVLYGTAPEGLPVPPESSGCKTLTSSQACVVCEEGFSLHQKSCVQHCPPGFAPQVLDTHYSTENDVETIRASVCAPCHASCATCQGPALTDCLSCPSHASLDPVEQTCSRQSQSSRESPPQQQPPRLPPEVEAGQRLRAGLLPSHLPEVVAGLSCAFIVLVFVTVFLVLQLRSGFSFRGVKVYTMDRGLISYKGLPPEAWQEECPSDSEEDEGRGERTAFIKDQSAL
T1 sequence (P09958 108-574): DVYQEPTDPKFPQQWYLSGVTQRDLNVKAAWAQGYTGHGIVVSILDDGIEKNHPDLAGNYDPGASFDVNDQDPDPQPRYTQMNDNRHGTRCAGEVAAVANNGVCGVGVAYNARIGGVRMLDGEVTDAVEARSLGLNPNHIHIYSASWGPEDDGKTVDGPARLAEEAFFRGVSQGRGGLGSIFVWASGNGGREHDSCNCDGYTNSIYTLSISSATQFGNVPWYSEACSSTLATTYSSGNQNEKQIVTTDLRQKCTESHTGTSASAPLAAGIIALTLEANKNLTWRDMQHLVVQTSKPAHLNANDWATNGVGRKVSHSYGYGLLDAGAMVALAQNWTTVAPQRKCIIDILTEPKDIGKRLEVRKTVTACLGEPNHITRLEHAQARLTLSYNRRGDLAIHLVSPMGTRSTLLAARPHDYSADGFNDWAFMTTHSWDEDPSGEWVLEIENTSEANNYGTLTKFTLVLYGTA

Regarding `CN1CCN(c2ncc(Oc3cc(CN4CCC(CCB(O)O)CC4)cc(-c4cc(Cl)cc(Cl)c4)n3)cn2)CC1` [Example 323, (2-(1-((2-(3,5-dichlorophenyl)-6-((2-(4-methylpiperazin-1-yl)pyrimidin-5-yl)oxy)pyridin-4-yl)methyl)piperidin-4-yl)ethyl)boronic acid], in assay [1], the “furin enzyme pIC50” value was found to be 8.7. Also, the EC50 in assay [2] was 0.0126 µM.

In the case of `CC(=O)NC(=O)OCC1CCN(Cc2cc(Oc3cnc(N4CCN(C)CC4)nc3)nc(-c3cc(Cl)cc(Cl)c3)c2)CC1` [Example 324], in assay [1], the “furin enzyme pIC50” value came to 8.3. For the same compound, the EC50 in assay [2] was 0.0158 µM.

Regarding `COC(=O)NC(=O)NCC1CCN(Cc2cc(Oc3cnc(N4CCN(C)CC4)nc3)nc(-c3cc(Cl)cc(Cl)c3)c2)CC1` [Example 325], the “furin enzyme pIC50” value in assay [1] was 8.3. For the same compound, the EC50 in assay [2] is 0.00631 µM.

For `CN1CCN(c2ncc(Oc3cc(CN4CCC(CNC(=O)NS(C)(=O)=O)CC4)cc(-c4cc(Cl)cc(Cl)c4)n3)cn2)CC1` [Example 326, N-(((1-((2-(3,5-dichlorophenyl)-6-((2-(4-methylpiperazin-1-yl)pyrimidin-5-yl)oxy)pyridin-4-yl)methyl)piperidin-4-yl)methyl)carbamoyl)methanesulfonamide], the “furin enzyme pIC50” value in assay [1] came to 8.7. Moreover, the EC50 in assay [2] is 0.0126 µM.

Regarding `CC(=O)NC(=O)NCC1CCN(Cc2cc(Oc3cnc(N4CCN(C)CC4)nc3)nc(-c3cc(Cl)cc(Cl)c3)c2)CC1` [Example 327], the “furin enzyme pIC50” value in assay [1] came to 8.6. Moreover, in assay [2], the EC50 was 0.00316 µM.

Take `CN1CCN(c2ncc(Oc3cc(CN4CCC(NC(=O)NS(C)(=O)=O)CC4)cc(-c4cc(Cl)cc(Cl)c4)n3)cn2)CC1` [Example 328, N-((1-((2-(3,5-dichlorophenyl)-6-((2-(4-methylpiperazin-1-yl)pyrimidin-5-yl)oxy)pyridin-4-yl)methyl)piperidin-4-yl)carbamoyl)methanesulfonamide]: the “furin enzyme pIC50” value in assay [1] is given as 8.3. Moreover, the EC50 in assay [2] is 0.0126 µM.

Regarding `CN1CCN(c2ncc(Oc3cc(CN4CCC(NC(N)=O)CC4)cc(-c4cc(Cl)cc(Cl)c4)n3)cn2)CC1` [Example 329, 1-(1-((2-(3,5-dichlorophenyl)-6-((2-(4-methylpiperazin-1-yl)pyrimidin-5-yl)oxy)pyridin-4-yl)methyl)piperidin-4-yl)urea], in assay [1], the “furin enzyme pIC50” value is 8.2. The EC50 in assay [2] is 0.0158 µM.

With `CN1CCN(c2ncc(Oc3cc(CN4CCO[C@H](CO)CC4)cc(-c4cc(Cl)cc(Cl)c4)n3)cn2)CC1` [Example 330, (S)-(4-((2-(3,5-Dichlorophenyl)-6-((2-(4-methylpiperazin-1-yl)pyrimidin-5-yl)oxy)pyridin-4-yl)methyl)-1,4-oxazepan-7-yl)methanol, 4 hydrochloride], the “furin enzyme pIC50” value in assay [1] amounted to 8. Moreover, the EC50 in assay [2] is 0.01 µM.

With `CN1CCN(c2ncc(Oc3cc(CN4CCC(P(C)(C)=O)CC4)cc(-c4cc(Cl)cc(Cl)c4)n3)cn2)CC1` [Example 331, (1-((2-(3,5-Dichlorophenyl)-6-((2-(4-methylpiperazin-1-yl)pyrimidin-5-yl)oxy)pyridin-4-yl)methyl)piperidin-4-yl)dimethylphosphine oxide, 4 hydrochloride], in assay [1], the “furin enzyme pIC50” value is 7.8. Moreover, the EC50 in assay [2] was 0.02 µM.

`CN1CCN(c2ncc(Nc3cc(CN4CCC(CC(=O)O)CC4)cc(-c4cc(Cl)cc(Cl)c4)n3)cn2)CC1` [Example 332, 2-(1-((2-(3,5-Dichlorophenyl)-6-((2-(4-methylpiperazin-1-yl)pyrimidin-5-yl)amino)pyridin-4-yl)methyl)piperidin-4-yl)acetic acid, 4 hydrochloride]: the “furin enzyme pIC50” value in assay [1] turned out to be 8.3. In addition, the EC50 in assay [2] is 0.0501 µM.

On to `Cc1c(CN2CCC(CC(=O)O)CC2)cc(-c2cc(Cl)cc(Cl)c2)nc1Oc1cnc(N2CCN(C)CC2)cn1` [Example 333, 2-(1-((6-(3,5-Dichlorophenyl)-3-methyl-2-((5-(4-methylpiperazin-1-yl)pyrazin-2-yl)oxy)pyridin-4-yl)methyl)piperidin-4-yl)acetic acid], for which, in assay [1], the “furin enzyme pIC50” value is 8.7. For the same compound, the EC50 in assay [2] is 0.0126 µM.

In the case of `CC(=O)NCC1CCN(Cc2cc(Oc3cnc(N4CC5CCC(C4)N5)nc3)nc(-c3cc(Cl)cc(Cl)c3)c2)CC1` [Example 335, N-((1-((2-((2-(3,8-diazabicyclo[3.2.1]octan-3-yl)pyrimidin-5-yl)oxy)-6-(3,5-dichlorophenyl)pyridin-4-yl)methyl)piperidin-4-yl)methyl)acetamide], the “furin enzyme pIC50” value in assay [1] turned out to be 9.2. Also, the EC50 in assay [2] was 0.00126 µM.

As for `COC(=O)NCC1CCN(Cc2cc(Oc3cnc(N4CCN5CCC4C5)nc3)nc(-c3cc(Cl)cc(Cl)c3)c2)CC1` (stereo not drawn) [Example 336, methyl ((1-((2-((2-(1,4-diazabicyclo[3.2.1]octan-4-yl)pyrimidin-5-yl)oxy)-6-(3,5-dichlorophenyl)pyridin-4-yl)methyl)piperidin-4-yl)methyl)carbamate], the “furin enzyme pIC50” value in assay [1] was 9.1. Further, the EC50 in assay [2] is 0.00398 µM.

As to `O=C(O)[C@H]1[C@@H]2CCN(Cc3cc(Oc4cnc(N5CCN6CCC5C6)nc4)nc(-c4cc(Cl)cc(Cl)c4)c3)CC[C@@H]21` (stereo partly drawn) [Example 337, (1R,7S,8r)-4-((2-((2-(1,4-diazabicyclo[3.2.1]octan-4-yl)pyrimidin-5-yl)oxy)-6-(3,5-dichlorophenyl)pyridin-4-yl)methyl)-4-azabicyclo[5.1.0]octane-8-carboxylic acid], in assay [1], the “furin enzyme pIC50” value was determined as 9. In assay [2], the EC50 is 0.00794 µM.

For `FC1CCN(Cc2cc(Oc3cnc(N4CCN5CCC4C5)nc3)nc(-c3cc(Cl)cc(Cl)c3)c2)CC1` (stereo not drawn) [Example 338, 4-(5-((6-(3,5-dichlorophenyl)-4-((4-fluoropiperidin-1-yl)methyl)pyridin-2-yl)oxy)pyrimidin-2-yl)-1,4-diazabicyclo[3.2.1]octane], the “furin enzyme pIC50” value in assay [1] was 8. Further, the EC50 in assay [2] was 0.0126 µM.

For `CC(CCN1CCN(c2cnc(Oc3cc(CN4CCC(CCO)CC4)cc(-c4cc(Cl)cc(Cl)c4)n3)cn2)CC1)C(=O)O` (stereo not drawn) [Example 341, 4-(4-(5-((6-(3,5-dichlorophenyl)-4-((4-(2-hydroxyethyl)piperidin-1-yl)methyl)pyridin-2-yl)oxy)pyrazin-2-yl)piperazin-1-yl)-2-methylbutanoic acid], the “furin enzyme pIC50” value in assay [1] was 8.8. In addition, the EC50 in assay [2] is 0.01 µM.

For `OCCC1CCN(Cc2cc(Oc3cnc(N4CCNCC4)cn3)nc(-c3cc(Cl)cc(Cl)c3)c2)CC1` [Example 342, 2-(1-((2-(3,5-dichlorophenyl)-6-((5-(piperazin-1-yl)pyrazin-2-yl)oxy)pyridin-4-yl)methyl)piperidin-4-yl)ethanol], the “furin enzyme pIC50” value in assay [1] was 8.7. Also, the EC50 in assay [2] was 0.00501 µM.

With `CC(C)(O)CN1CCN(c2cnc(Oc3cc(CN4CCC(CC(=O)O)CC4)cc(-c4cc(Cl)cc(Cl)c4)n3)cn2)CC1` [Example 343, 2-(1-((2-(3,5-dichlorophenyl)-6-((5-(4-(2-hydroxy-2-methylpropyl)piperazin-1-yl)pyrazin-2-yl)oxy)pyridin-4-yl)methyl)piperidin-4-yl)acetic acid], the “furin enzyme pIC50” value in assay [1] is 8.7. Besides, the EC50 in assay [2] was 0.0631 µM.

For `O=C(O)CC1CCN(Cc2cc(Oc3ccc(N4CCN5CCC4C5)nn3)nc(-c3cc(Cl)cc(Cl)c3)c2)CC1` (stereo not drawn) [Example 344, 2-(1-((2-((6-(1,4-diazabicyclo[3.2.1]octan-4-yl)pyridazin-3-yl)oxy)-6-(3,5-dichlorophenyl)pyridin-4-yl)methyl)piperidin-4-yl)acetic acid], the “furin enzyme pIC50” value in assay [1] was found to be 8.4. In addition, the EC50 in assay [2] is 0.0794 µM.

Regarding `CCN1CCCN(c2cnc(Oc3cc(CN4CCC(CC(=O)O)CC4)cc(-c4cc(Cl)cc(Cl)c4)n3)cn2)CC1` [Example 345, 2-(1-((2-(3,5-dichlorophenyl)-6-((5-(4-ethyl-1,4-diazepan-1-yl)pyrazin-2-yl)oxy)pyridin-4-yl)methyl)piperidin-4-yl)acetic acid], the “furin enzyme pIC50” value in assay [1] worked out at 8.6. Further, the EC50 in assay [2] was 0.0126 µM.

On to `CN1C[C@@H]2C[C@H]1CN2c1cnc(Oc2cc(CN3CCC(CC(=O)O)CC3)cc(-c3cc(Cl)cc(Cl)c3)n2)cn1` [Example 346, 2-(1-((2-(3,5-dichlorophenyl)-6-((5-((1S,4S)-5-methyl-2,5-diazabicyclo+2.2.1+heptan-2-yl)pyrazin-2-yl)oxy)pyridin-4-yl)methyl)piperidin-4-yl)acetic acid], for which the “furin enzyme pIC50” value in assay [1] stood at 8.5. Moreover, the EC50 in assay [2] is 0.0126 µM.

On to `CC(C)N1CCN(c2cnc(Oc3cc(CN4CCC(CC(=O)O)CC4)cc(-c4cc(Cl)cc(Cl)c4)n3)cn2)CC1` [Example 347, 2-(1-((2-(3,5-dichlorophenyl)-6-((5-(4-isopropylpiperazin-1-yl)pyrazin-2-yl)oxy)pyridin-4-yl)methyl)piperidin-4-yl)acetic acid], for which the “furin enzyme pIC50” value in assay [1] is 8.5. The EC50 in assay [2] was 0.0158 µM.

With `O=C(O)CC1CCN(Cc2cc(Oc3cnc(N4CCN5CCC4C5)cn3)nc(-c3cc(Cl)cc(Cl)c3)c2)CC1` (stereo not drawn) [Example 348, 2-(1-((2-((5-(1,4-diazabicyclo[3.2.1]octan-4-yl)pyrazin-2-yl)oxy)-6-(3,5-dichlorophenyl)pyridin-4-yl)methyl)piperidin-4-yl)acetic acid], in assay [1], the “furin enzyme pIC50” value is given as 8.4. Also, in assay [2], the EC50 was 0.0501 µM.

`CC(O)CCN1CCN(c2cnc(Oc3cc(CN4CCC(CC(=O)O)CC4)cc(-c4cc(Cl)cc(Cl)c4)n3)cn2)CC1` (stereo not drawn) [Example 349, 2-(1-((2-(3,5-dichlorophenyl)-6-((5-(4-(3-hydroxybutyl)piperazin-1-yl)pyrazin-2-yl)oxy)pyridin-4-yl)methyl)piperidin-4-yl)acetic acid]: the “furin enzyme pIC50” value in assay [1] came out at 8.6. For the same compound, the EC50 in assay [2] was 0.01 µM.
